Results: patent US9062047B2, “Crystalline form of pyrimido[6,1-A] isoquinolin-4-one compound” (Verona Pharma plc, priority 2010, dated 2015)

Assays:
[1] = polymorph A (marketed) vs form B; cited from earlier work
[2] = Thermodynamic aqueous solubility by HPLC; format: physicochemical; details: purified water; for Aqueous solubility: pH 7, 25° C., 24 hours, 20 mg in 1 ml
Procedure: Thermodynamic Aqueous Solubility by HPLC: Aqueous solubility was determined by suspending sufficient compound in HPLC grade water to give a maximum final concentration of ≧20 mg ml^−1 of the parent compound. The suspension was equilibrated at 25° C. for 24 hours. The suspension was then filtered through a filter into a HPLC vial. The filtrate was then diluted by an appropriate factor. Quantification was executed by HPLC with reference to a standard solution of approximately 0.5 mg ml^−1 in Acetonitrile:Water: (1:1). Different volumes of the standard, diluted and undiluted sample solutions were injected. The solubility was calculated using the peak areas determined by integration of the peak found at the same retention time as the principal peak in the standard injection.
Analysis was performed on an Agilent 1100 series liquid chromatography, equipped with a UV detector (DAD or VWD) @254 nm and using Chemstation Rev.B.01.03 software for data processing. Chemical purity determination by HPLC.
As amorphous material and Form I were in hand, both samples were exposed to a straight forward aqueous solubility study in purified water at 25° C. This experiment was performed as it was unknown whether crystalline or amorphous material was initially isolated in-house during a previous synthesis campaign.
• A suspension of 20 mg of the candidate was mixed in purified water (1 ml, pH 7). The suspension was equilibrated at 25° C. for 24 hours. The suspension was then filtered into an HPLC vial and the filtrate then diluted by an appropriate factor with quantification being executed by HPLC with reference to a standard solution.

[3] = Slurry maturation (heat/cool cycles), XRPD; format: physicochemical; details: 24 solvents, cycled 20° C./50° C., 8 hour periods, 4 days
Procedure: 24× Slurry maturations were performed in an attempt to stress the current crystalline solid into undergoing form transformation.
• Some 20 mg of material was agitated in glass tubes in approximately 30 volumes of solvent and cycled between isothermal periods (8 hours) of 20° C. and 50° C. After 4 days of cycling, the solids were filtered off and dried in vacuo at 45° C. prior to analysis by XRPD. All results were compared to the starting material, RPL554 (Form I); see Table 4.

[4] = Applied pressure (100 KN), XRPD and DSC; format: physicochemical; details: overnight, 10 mg
Procedure: Applied pressure (100 KN): 10 mg of RPL554 was left in a pressing disc system overnight, forming a fine and uniform disc with a thickness of less than 0.1 mm. The disc was gently ground and analysed by XRPD (FIG. 13).

[5] = Crash cooling of a melt, LC/HPLC analysis (stability at temperature); format: physicochemical
Procedure: As there was historical experimental proof of generating amorphous material by heating RPL554 Form I up to 245° C. and rapidly cooling the melt, a repeat of this method was performed (TGA basis) and produced the same, clear, yellow, glass like material.
A proposed glass transition can be observed at approximately 120° C., with no formal recrystallisation observed. While this experiment was running, the sample was submitted for LC analysis, as stability at temperature was known to be a potential issue (observation of TGA). […] The experiment was repeated at a lower temperature (240° C.), this trying to avoid decomposition and thus return a better profile in terms of purity. LC analysis returned a similar profile of very low purity and various secondary products. It was therefore apparent that amorphous material would not be generated in this manner.

Structure (SMILES) | Difference in bio-activity between form A and form B [1] | Aqueous solubility compared with Form I ([2]; 25° C.) | Aqueous solubility [2] [µg/mL] | Form change on slurry maturation (XRPD) [3] | Form change under applied pressure (XRPD) [4] | Product by HPLC analysis after crash cooling a melt ([5]; crash cooled melt, amorphous by XRPD) [%] | Starting material remaining by LC after crash cooled melt ([5]; heated up to 245° C. and rapidly cooled) [%]
CCCCCCCCCCCCCCCC(=O)OC[C@@H](NC(=O)C(Cl)Cl)[C@H](O)c1ccc([N+](=O)[O-])cc1 [Chloramphenicol-3-palmitate] | eight | – | – | – | – | – | –
COc1cc2c(cc1OC)-c1c/c(=N\c3c(C)cc(C)cc3C)n(CCNC(N)=O)c(=O)n1CC2 [JN376F] | – | more soluble than Form I | 30 | – | – | – | –
COc1cc2c(cc1OC)-c1c/c(=N\c3c(C)cc(C)cc3C)n(CCNC(N)=O)c(=O)n1CC2 [RPL554, N-{2-[(2E)-2-(mesitylimino)-9,10-dimethoxy-4-oxo-6,7-dihydro-2H-pyrimido[6,1-a]-isoquinolin-3 (4H)-yl]ethyl}urea] | – | – | 1 | extremely resilient to change | generates an amorphous phase | < 20 | 26
